Where two headings read alike, the source gives them in different places.
How the values were obtained:
[1] = biological target: T1, CRAC channel (endogenous SOC in HEK293 cells) (Homo sapiens, UniProt Q96D31); test: HEK Calcium Influx Assay (FLIPR); assay type: cell-based
T1 construct: endogenous in cells; host or cells: HEK293 (ECACC)
Method: The effect of compounds of the invention on intracellular [Ca^2+] was tested in the HEK293 cell line (ECACC). HEK293 cells were cultured in DMEM/F12/Glutamax (Gibco) containing 10% FCS (Gibco), and maintained at 37° C., 5% CO2. Cell were split twice a week [3*10^6 (Mon-Thu) and 1*10^6 (Thu-Mon) cells/50 ml medium in T-175 ZK culture flasks, respectively]. Twenty four hours pre-experiment, cells were seeded on 96 well plates (Poly-D-Lysine 96well Black/Clear Plate, BD Biocoat REF 356640) at a density of 40,000 cells/well in DMEM/F12 (Gibco) containing 10% FCS (Gibco), and maintained at 37° C., 5% CO2. Prior to store-depletion, cell culture medium was removed and cells were loaded with the a Calcium-sensitive fluorescent dye comprised within the Calcium-4-assay kit (Molecular Devices) in nominally Ca^2+-free HBS buffer (140 mM NaCl, 4 mM KCl, 0.2 mM MgCl2, 11 mM D-glucose, and 10 mM HEPES, pH 7.4) according to manufacturer's instruction for 60 min at 37° C., 5% CO2. Passive depletion of intracellular Ca^2+-stores was then triggered by employing the SERCA inhibitor thapsigargin (2 μM final) for 10 min in the dark (RT). To prevent immediate Ca^2+-entry via the activated Store-operated channels (SOCs), cells were maintained in Ca^2+-free HBS buffer comprising 100 μM EGTA during store-depletion. Intracellular changes in [Ca^2+] were subsequently monitored with the FLIPR device (Molecular Devices). In brief, baseline imaging post-store depletion was allowed for 1 min before adjusting the extracellular buffer to 3 mM CaCl2. Increases in intracellular [Ca^2+] due to pre-activated SOC channels were monitored for 15 min until intracellular Ca^2+ levels had declined into a steady-state. Finally, compounds were administered and Ca^2+ signals were recorded for additional 10 min. Inhibition of endogenous SOC in HEK293 cells was quantified employing the average Ca^2+ signal measured from 9.5-10 min post-administration. Zero percent inhibition (MAX) was defined as the Ca^2+ signal recorded from wells to which DMSO-only had been added instead of compound. Hundred percent inhibition (MIN) was defined as the signal obtained from wells in which cells haven't been treated with TG prior to Ca^2+ addition and to which DMSO-only had been added instead of compound. For routine IC50 determinations of compounds, 8 concentrations of a serial dilution (1:3.16) were tested, starting off from 10 μM. Reliable IC50's could consequently be determined only, if they were at least sub 2.5-3 μM.

[2] = tested on: Interleukin-2 (IL-2) production/release in Jurkat T cell line; test: Jurkat IL-2 Production Assay; assay type: cell-based; details: Homo sapiens; Jurkat T cells, PHA stimulation 22 hours
Method: Jurkat IL-2 Production Assay
The effect of compounds of the invention on Interleukin-2 (IL-2) production/release was tested in the Jurkat T cell line (ECACC) clone E6-1. Jurkat T cells were cultured in DMEM/F12/Glutamax (Gibco) containing 10% FCS (Gibco), and maintained at 37° C., 5% CO2. Cell were split twice a week [5*10^6 (Mon-Thu) and 1*10^7 (Thu-Mon) cells/50 ml medium in T-175 ZK culture flasks, respectively]. Prior to experiment, cells were seeded on 96 well plates (Cellstar 96 Well; Cat No. 655180, Greiner bio-one) at a density of 5*10^5 cells/well in DMEM/F12/Glutamax (Gibco) containing 10% FCS (Gibco), and incubated for 60 min at 37° C., 5% CO2. Subsequently, compounds were added and cells were allowed to incubate for 30 min at 37° C., 5% CO2. Cells were then stimulated with 15 μg/ml Phytohemagglutinin (PHA; Sigma) for 22 hours at 37° C., 5% CO2. Before sampling of the supernatants, cells were spun down (200*g/5 min/RT). The amount of IL-2 released into the supernatant was quantified with the human IL-2 AlphaLisa kit (Perkin Elmer) according to manufacturer's instructions. Luminescence proximity measurements were carried out in the Synergy H4 reader (BioTek) employing the fluorescence setting of the reader (ex: 680/30 nm; em: 620/40 nm). Inhibition of IL-production/release in/from Jurkat T cells was quantified as follows: Zero percent inhibition (MAX) was defined as the [IL-2] determined in supernatants derived from cells to which PHA & DMSO-only had been added instead of compound. Hundred percent inhibition (MIN) was defined as the [IL-2] determined in supernatants derived from cells that had been pre-treated with 1 μM CyclosporineA (Sigma) before the addition of 15 μg/ml PHA. For routine IC50 determinations of compounds, 8 concentrations of a serial dilution (1:3.16) were tested, starting off from 10 μM.

[3] = numeric values of Table 2, read-out: inhib. [@ 10 μM] FLIPR
[4] = thapsigargin store depletion, read-out: % inhib. [@ 10 μM] FLIPR

T1 sequence (Q96D31 whole entry): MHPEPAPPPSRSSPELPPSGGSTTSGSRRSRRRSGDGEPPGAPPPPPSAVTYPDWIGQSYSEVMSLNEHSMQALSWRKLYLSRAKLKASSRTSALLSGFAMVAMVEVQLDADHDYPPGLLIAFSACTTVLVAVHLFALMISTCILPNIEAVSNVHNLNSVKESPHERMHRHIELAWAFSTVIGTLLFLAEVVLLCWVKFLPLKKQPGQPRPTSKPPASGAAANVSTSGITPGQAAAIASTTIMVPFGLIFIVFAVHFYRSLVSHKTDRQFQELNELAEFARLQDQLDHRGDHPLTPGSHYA

| Compound | inhibition at 10 µM [1, 3] [%] | inhibition at 10 µM [1, 4] [%] | IC50 [2] [µM] |
| --- | --- | --- | --- |
| CCOc1cc(OC)c(-c2cc(C(=O)Nc3c(F)cncc3F)nn2C)cn1 [Example 14, N-(3,5-Difluoro-pyridin-4-yl)-5-(6-ethoxy-4-methoxy-pyridin-3-yl)-1-methyl-1H-pyrazole-3-carboxylic acid amide] |  | > 70 | < 0.5 |
| CCOc1cc(OC)c(-c2cc(C(=O)Nc3c(F)cccc3F)nn2C)cn1 [Example 16, N-(2,6-Difluoro-phenyl)-5-(6-ethoxy-4-methoxy-pyridin-3-yl)-1-methyl-1H-pyrazole-3-carboxylic acid amide] |  | > 70 | < 0.5 |
| Cc1cc(OCC2CCC2)ncc1-c1cc(C(=O)Nc2c(F)cncc2F)nn1C [Example 20, 5-[6-(Cyclobutyl-methoxy)-4-methyl-pyridin-3-yl]-N-(3,5-difluoro-pyridin-4-yl)-1-methyl-1H-pyrazole-3-carboxylic acid amide] | 121 | > 70 | < 0.5 |
| COCCOc1cc(C)c(-c2cc(C(=O)Nc3c(F)cccc3F)nn2C)cn1 [Example 28, N-(2,6-Difluoro-phenyl)-5-[6-(2-methoxy-ethoxy)-4-methyl-pyridin-3-yl]-1-methyl-1H-pyrazole-3-carboxylic acid amide] | 87 | > 70 | 1 to 5 |
| CCOc1cc(C(F)(F)F)c(-c2cc(C(=O)Nc3c(F)cccc3F)nn2C)cn1 [Example 32, N-(2,6-Difluoro-phenyl)-5-[6-ethoxy-4-(trifluoromethyl)-pyridin-3-yl]-1-methyl-1H-pyrazole-3-carboxylic acid amide] |  | > 70 | 0.5 to 1 |
| Cc1c(-c2cc(C(=O)Nc3c(F)cncc3F)nn2C)cnc(C2CC2)c1F [Example 34, 5-(6-Cyclopropyl-5-fluoro-4-methyl-pyridin-3-yl)-N-(3,5-difluoro-pyridin-4-yl)-1-methyl-1H-pyrazole-3-carboxylic acid amide] |  | > 70 | 1 to 5 |
| CCOc1ncc(-c2cc(C(=O)Nc3c(F)cccc3F)nn2C)c(C)c1F [Example 35, N-(2,6-Difluoro-phenyl)-5-(6-ethoxy-5-fluoro-4-methyl-pyridin-3-yl)-1-methyl-1H-pyrazole-3-carboxylic acid amide] |  | < 50 | 1 to 5 |
| CCOc1ncc(-c2cc(C(=O)Nc3c(F)cncc3F)nn2C)c(C)c1F [Example 36, N-(3,5-Difluoro-pyridin-4-yl)-5-(6-ethoxy-5-fluoro-4-methyl-pyridin-3-yl)-1-methyl-1H-pyrazole-3-carboxylic acid amide] |  | 50 to 70 | 1 to 5 |
| COc1cc(OC(F)F)ncc1-c1cc(C(=O)Nc2c(F)cccc2F)nn1C [Example 43, 5-[6-(Difluoro-methoxy)-4-methoxy-pyridin-3-yl]-N-(2,6-difluoro-phenyl)-1-methyl-1H-pyrazole-3-carboxylic acid amide] |  | > 70 | < 0.5 |
| COc1cc(OC(F)F)ncc1-c1cc(C(=O)Nc2c(F)cncc2F)nn1C [Example 44, 5-[6-(Difluoro-methoxy)-4-methoxy-pyridin-3-yl]-N-(3,5-difluoro-pyridin-4-yl)-1-methyl-1H-pyrazole-3-carboxylic acid amide] |  | > 70 | < 0.5 |
| COc1cc(OCC2CC2)ncc1-c1cc(C(=O)Nc2c(F)cccc2F)nn1C [Example 45, 5-[6-(Cyclopropyl-methoxy)-4-methoxy-pyridin-3-yl]-N-(2,6-difluoro-phenyl)-1-methyl-1H-pyrazole-3-carboxylic acid amide] |  | > 70 | < 0.5 |

Now from value to molecule:

| inhibition at 10 µM [1, 3] [%] | inhibition at 10 µM [1, 4] [%] | IC50 [2] [µM] | Compound |
| --- | --- | --- | --- |
| 100 | > 70 | 0.5 to 1 | Cc1cc(OC(C)C)ncc1-c1cc(C(=O)Nc2c(F)cccc2F)nn1C [Example 13, N-(2,6-Difluoro-phenyl)-5-(6-isopropoxy-4-methyl-pyridin-3-yl)-1-methyl-1H-pyrazole-3-carboxylic acid amide] |
|  | > 70 | < 0.5 | CCOc1cc(OCC)c(-c2cc(C(=O)Nc3c(F)cncc3F)nn2C)cn1 [Example 15, 5-(4,6-Diethoxy-pyridin-3-yl)-N-(3,5-difluoro-pyridin-4-yl)-1-methyl-1H-pyrazole-3-carboxylic acid amide] |
|  | > 70 | < 0.5 | CCOc1cc(OCC)c(-c2cc(C(=O)Nc3c(F)cccc3F)nn2C)cn1 [Example 17, 5-(4,6-Diethoxy-pyridin-3-yl)-N-(2,6-difluoro-phenyl)-1-methyl-1H-pyrazole-3-carboxylic acid amide] |
| 94 | > 70 | 1 to 5 | Cc1cc(OC2COC2)ncc1-c1cc(C(=O)Nc2c(F)cccc2F)nn1C [Example 23, N-(2,6-Difluoro-phenyl)-1-methyl-5-[4-methyl-6-(oxetan-3-yloxy)-pyridin-3-yl]-1H-pyrazole-3-carboxylic acid amide] |
|  | > 70 | 1 to 5 | CCOc1cc(C(F)(F)F)c(-c2cc(C(=O)Nc3c(F)cncc3F)nn2C)cn1 [Example 31, N-(3,5-Difluoro-pyridin-4-yl)-5-[6-ethoxy-4-(trifluoromethyl)-pyridin-3-yl]-1-methyl-1H-pyrazole-3-carboxylic acid amide] |
|  | > 70 | 1 to 5 | Cc1c(-c2cc(C(=O)Nc3c(F)cccc3F)nn2C)cnc(C2CC2)c1F [Example 33, 5-(6-Cyclopropyl-5-fluoro-4-methyl-pyridin-3-yl)-N-(2,6-difluoro-phenyl)-1-methyl-1H-pyrazole-3-carboxylic acid amide] |
| 98 | > 70 | 1 to 5 | Cc1cc(N(C)C)ncc1-c1cc(C(=O)Nc2c(F)cccc2F)nn1C [Example 37, N-(2,6-Difluoro-phenyl)-5-(6-dimethylamino-4-methyl-pyridin-3-yl)-1-methyl-1H-pyrazole-3-carboxylic acid amide] |
|  | > 70 | < 0.5 | COc1cc(OCC(F)(F)F)ncc1-c1cc(C(=O)Nc2c(F)cccc2F)nn1C [Example 46, N-(2,6-Difluoro-phenyl)-5-[4-methoxy-6-(2,2,2-trifluoro-ethoxy)-pyridin-3-yl]-1-methyl-1H-pyrazole-3-carboxylic acid amide] |
|  | > 70 | < 0.5 | CCOc1cc(OC(F)F)c(-c2cc(C(=O)Nc3c(F)cccc3F)nn2C)cn1 [Example 47, 5-[4-(Difluoro-methoxy)-6-ethoxy-pyridin-3-yl]-N-(2,6-difluoro-phenyl)-1-methyl-1H-pyrazole-3-carboxylic acid amide] |

From US20150166505A1, “PYRIDINYL-SUBSTITUTED PYRAZOLYL CARBOXAMIDES” (GRÜNENTHAL GMBH, priority 2013, published 2015)
